From ChEMBL document CHEMBL4261525, “Design, facile synthesis and anthelmintic activity of new O-substituted 6-methoxybenzothiazole-2-carbamates. Part II” (2017)

Experiments:
Assay type in all cases: functional
[1] = system: Paramphistomum; experiment: Anthelmintic activity against Paramphistomum assessed as mortality at 40 ug/ml after 4 hrs relative to control
[2] = system: Paramphistomum; experiment: Anthelmintic activity against Paramphistomum assessed as mortality at 80 ug/ml after 6 hrs relative to control
[3] = system: Paramphistomum; experiment: Anthelmintic activity against Paramphistomum assessed as mortality at 80 ug/ml after 1 hr relative to control
[4] = system: Paramphistomum; experiment: Anthelmintic activity against Paramphistomum assessed as mortality at 80 ug/ml after 4 hrs relative to control
[5] = system: Paramphistomum; experiment: Anthelmintic activity against Paramphistomum assessed as mortality at 40 ug/ml after 1 hr relative to control
[6] = system: Paramphistomum; experiment: Anthelmintic activity against Paramphistomum assessed as mortality at 40 ug/ml after 2 hrs relative to control
[7] = system: Paramphistomum; experiment: Anthelmintic activity against Paramphistomum assessed as mortality at 40 ug/ml after 6 hrs relative to control
[8] = system: Paramphistomum; experiment: Anthelmintic activity against Paramphistomum assessed as mortality at 80 ug/ml after 2 hrs relative to control

Row | SMILES | mortality at 40 µg/mL [1] [%] | mortality at 80 µg/mL [2] [%] | mortality at 80 µg/mL [3] [%] | mortality at 80 µg/mL [4] [%] | mortality at 40 µg/mL [5] [%] | mortality at 40 µg/mL [6] [%] | mortality at 40 µg/mL [7] [%] | mortality at 80 µg/mL [8] [%]
1 | CCSc1nnc(COc2ccc3nc(NC(=O)OC)sc3c2)o1 | 50 | 80 | 20 | 60 | 10 | 40 | 80 | 60
2 | COC(=O)Nc1nc2ccc(OCc3nnc(SCC(=O)c4ccc(Br)cc4)o3)cc2s1 | 60 | – | 60 | – | 20 | 40 | 60 | 100
3 | COC(=O)Nc1nc2ccc(OCc3nnc(SCc4ccccc4)o3)cc2s1 | 50 | 100 | 30 | 90 | 30 | 30 | 60 | 60
4 | COC(=O)Nc1nc2ccc(OCc3nnc(S)n3-c3ccccc3)cc2s1 | 0 | 0 | 0 | 0 | 0 | 0 | 0 | 0
5 | CCOC(=O)CSc1nnc(COc2ccc3nc(NC(=O)OC)sc3c2)o1 | 30 | 60 | 20 | 50 | 10 | 20 | 30 | 30
6 | COC(=O)Nc1nc2ccc(OCc3nnc(SCC(=O)c4ccc(Cl)cc4)o3)cc2s1 | 40 | – | 50 | 100 | 40 | 40 | 40 | 70
7 | COC(=O)Nc1nc2ccc(OCc3nnc(SC)o3)cc2s1 | 20 | 40 | 10 | 30 | 10 | 10 | 20 | 20
8 | COC(=O)Nc1nc2ccc(OCc3nnc(SC(=O)CCl)o3)cc2s1 | 20 | 50 | 10 | 30 | 10 | 10 | 20 | 30
9 | COC(=O)Nc1nc2ccc(OCc3nnc(S)n3-c3ccc(C)cc3)cc2s1 | 0 | 0 | 0 | 0 | 0 | 0 | 0 | 0
10 | COC(=O)Nc1nc2ccc(OCc3nnc(S)n3-c3ccc(Cl)cc3)cc2s1 | 30 | 80 | 20 | 50 | 10 | 20 | 50 | 20
11 | C=CCSc1nnc(COc2ccc3nc(NC(=O)OC)sc3c2)o1 | 50 | – | 20 | 100 | 20 | 30 | 70 | 40
12 | COC(=O)Nc1nc2ccc(OCc3nnc(SCC(=O)c4ccccc4)o3)cc2s1 | 20 | 70 | 30 | 50 | 10 | 20 | 30 | 40
13 | O=C(Nc1cc(Cl)cc(Cl)c1O)c1c(O)c(Cl)cc(Cl)c1Cl [OXYCLOZANIDE] | 100 | – | 50 | – | 30 | 70 | – | 100
